Active and inactive are the calls of the source. The rule behind the calls is not given here.
How the values were obtained:
[1] = target: T1, Alpha-2B adrenergic receptor (Homo sapiens) (UniProt P18089); conditions: CHO, 100 nM
T1 sequence (whole entry): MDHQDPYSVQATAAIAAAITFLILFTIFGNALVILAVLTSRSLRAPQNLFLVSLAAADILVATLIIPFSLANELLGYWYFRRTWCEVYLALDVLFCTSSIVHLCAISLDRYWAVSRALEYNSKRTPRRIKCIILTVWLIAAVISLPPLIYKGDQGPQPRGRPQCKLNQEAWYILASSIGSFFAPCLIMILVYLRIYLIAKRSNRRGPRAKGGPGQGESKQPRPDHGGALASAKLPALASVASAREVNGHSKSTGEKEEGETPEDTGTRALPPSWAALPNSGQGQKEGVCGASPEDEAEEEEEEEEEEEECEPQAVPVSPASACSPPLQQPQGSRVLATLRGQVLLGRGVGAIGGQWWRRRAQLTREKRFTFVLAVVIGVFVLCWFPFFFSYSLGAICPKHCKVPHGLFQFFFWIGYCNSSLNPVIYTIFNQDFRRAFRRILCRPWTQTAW

Rattus norvegicus = assay: Antinociceptive activity in Sprague-Dawley rat dosed intravenously using cumulative dosing every 5 mins until rat maxed-out on hot plate by hot plate test; format: functional; conditions: iv
[2] = target: Kappa-type opioid receptor (Homo sapiens, UniProt P41145); assay: Agonist activity at human recombinant kappa opioid receptor expressed in rat RBL cells assessed as stimulation of intracellular calcium levels incubated at room temperature by fluorimetry; format: functional, cell-based
[3] = target: T2, Alpha-2C adrenergic receptor (Homo sapiens) (UniProt P18825); assay: Competitive antagonist activity at human recombinant adrenergic alpha-2C receptor expressed in CHO cells assessed as inhibition of epinephrine-induced intracellular calcium levels incubated at room temperature by fluorimetry; format: functional, cell-based
T2 sequence (whole entry): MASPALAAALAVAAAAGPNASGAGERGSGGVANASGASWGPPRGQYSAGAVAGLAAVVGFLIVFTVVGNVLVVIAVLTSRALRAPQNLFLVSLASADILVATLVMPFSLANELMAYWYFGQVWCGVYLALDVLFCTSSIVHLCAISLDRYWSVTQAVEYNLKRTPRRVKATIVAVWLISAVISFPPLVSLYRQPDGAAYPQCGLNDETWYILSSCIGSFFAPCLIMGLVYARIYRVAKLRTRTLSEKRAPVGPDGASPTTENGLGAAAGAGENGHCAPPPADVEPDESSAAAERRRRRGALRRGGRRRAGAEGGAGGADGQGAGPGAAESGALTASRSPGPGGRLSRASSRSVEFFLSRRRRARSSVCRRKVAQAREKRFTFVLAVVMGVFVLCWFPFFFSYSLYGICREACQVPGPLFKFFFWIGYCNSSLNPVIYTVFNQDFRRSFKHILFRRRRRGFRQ

[4] = target: T3, Alpha-1B adrenergic receptor (Homo sapiens, UniProt P35368); assay: Displacement of [3H]prazosin from human recombinant adrenergic alpha-1B receptor expressed in CHO cell membranes incubated for 60 mins
T3 sequence (P35368 whole entry): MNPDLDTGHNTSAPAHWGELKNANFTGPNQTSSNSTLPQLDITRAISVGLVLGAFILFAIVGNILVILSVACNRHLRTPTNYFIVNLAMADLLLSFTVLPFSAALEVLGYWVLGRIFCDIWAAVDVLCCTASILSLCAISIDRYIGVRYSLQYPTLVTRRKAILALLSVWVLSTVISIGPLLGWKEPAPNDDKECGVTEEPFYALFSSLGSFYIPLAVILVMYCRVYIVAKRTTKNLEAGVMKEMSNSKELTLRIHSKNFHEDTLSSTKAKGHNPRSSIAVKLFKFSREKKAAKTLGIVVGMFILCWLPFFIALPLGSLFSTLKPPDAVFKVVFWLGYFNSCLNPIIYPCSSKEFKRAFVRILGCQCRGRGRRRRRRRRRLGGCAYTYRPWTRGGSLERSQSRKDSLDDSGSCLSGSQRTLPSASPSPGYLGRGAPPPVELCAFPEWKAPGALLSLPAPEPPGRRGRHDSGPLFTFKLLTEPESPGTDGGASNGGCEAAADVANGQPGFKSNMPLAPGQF

[5] = target: T4, Alpha-2C adrenergic receptor (Homo sapiens, UniProt P18825); assay: biochemical
T4 sequence (P18825 whole entry): T2 sequence (whole entry)

[6] = target: T5, Alpha-1D adrenergic receptor (Homo sapiens) (UniProt P25100); assay: Partial agonist activity at human recombinant adrenergic alpha-1D receptor expressed in rat RBL cells assessed as stimulation of intracellular calcium levels incubated at room temperature by fluorimetry; format: functional, cell-based
T5 sequence (whole entry): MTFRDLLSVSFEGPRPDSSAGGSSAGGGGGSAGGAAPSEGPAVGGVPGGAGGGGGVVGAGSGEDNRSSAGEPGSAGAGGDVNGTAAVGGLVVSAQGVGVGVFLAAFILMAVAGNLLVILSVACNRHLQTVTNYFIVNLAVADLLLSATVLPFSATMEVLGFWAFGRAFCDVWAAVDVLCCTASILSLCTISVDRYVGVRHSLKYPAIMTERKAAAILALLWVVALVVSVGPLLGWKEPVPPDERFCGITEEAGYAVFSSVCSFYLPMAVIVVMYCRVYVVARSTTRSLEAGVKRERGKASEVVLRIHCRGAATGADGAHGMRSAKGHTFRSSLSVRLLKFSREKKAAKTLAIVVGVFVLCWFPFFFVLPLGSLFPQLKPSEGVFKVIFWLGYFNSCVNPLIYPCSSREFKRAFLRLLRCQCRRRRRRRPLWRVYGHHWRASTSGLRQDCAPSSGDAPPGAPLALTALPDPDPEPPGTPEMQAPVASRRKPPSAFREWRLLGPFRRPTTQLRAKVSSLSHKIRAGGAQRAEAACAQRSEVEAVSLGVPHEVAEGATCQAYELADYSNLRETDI

[7] = target: T6, Alpha-1A adrenergic receptor (Homo sapiens) (UniProt P35348); assay: Partial agonist activity at human recombinant adrenergic alpha-1A receptor expressed in CHO cells assessed as stimulation of intracellular calcium levels incubated at room temperature by fluorimetry; format: functional, cell-based
T6 sequence (whole entry): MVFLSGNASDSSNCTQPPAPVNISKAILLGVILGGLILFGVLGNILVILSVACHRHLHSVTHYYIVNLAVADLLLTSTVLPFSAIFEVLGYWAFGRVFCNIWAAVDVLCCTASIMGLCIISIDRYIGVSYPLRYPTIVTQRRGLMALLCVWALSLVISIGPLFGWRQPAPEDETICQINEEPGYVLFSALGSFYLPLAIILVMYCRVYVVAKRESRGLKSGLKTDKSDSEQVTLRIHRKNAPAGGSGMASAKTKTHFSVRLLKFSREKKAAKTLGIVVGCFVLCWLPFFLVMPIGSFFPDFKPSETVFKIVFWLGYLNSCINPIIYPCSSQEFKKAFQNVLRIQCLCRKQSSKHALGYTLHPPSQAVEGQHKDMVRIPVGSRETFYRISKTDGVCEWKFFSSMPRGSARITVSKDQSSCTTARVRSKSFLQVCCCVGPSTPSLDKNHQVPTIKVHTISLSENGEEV

[8] = target: T7, Alpha-1D adrenergic receptor (Homo sapiens, UniProt P25100); assay: Displacement of [3H]prazosin from human recombinant adrenergic alpha-1D receptor expressed in CHO cell membranes incubated for 60 mins
T7 sequence (P25100 whole entry): T5 sequence (whole entry)

Kappa-type opioid receptor, sequence (P41145 whole entry): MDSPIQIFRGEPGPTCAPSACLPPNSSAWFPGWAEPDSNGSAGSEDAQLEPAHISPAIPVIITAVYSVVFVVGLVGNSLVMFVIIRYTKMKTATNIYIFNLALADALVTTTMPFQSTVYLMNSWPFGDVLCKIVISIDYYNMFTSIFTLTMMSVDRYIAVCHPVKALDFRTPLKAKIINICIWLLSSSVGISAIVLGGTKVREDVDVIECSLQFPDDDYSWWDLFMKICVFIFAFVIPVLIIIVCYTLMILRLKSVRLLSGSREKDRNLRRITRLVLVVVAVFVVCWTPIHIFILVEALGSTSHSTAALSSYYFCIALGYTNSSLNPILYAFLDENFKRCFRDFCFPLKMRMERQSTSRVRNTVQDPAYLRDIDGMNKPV

Compound | inhibition [1] | ED50 (Rattus norvegicus) | Activity [2] | inhibition [3] | Ki [4] | Ki [5] | Activity [6] | Activity [7] | Ki [8]
CC[C@@H]1CN2CCc3c([nH]c4cccc(OC)c34)[C@H]2C[C@@H]1/C(=C\OC)C(=O)OC | 0% | 6.25 mg/kg | inactive |  |  |  |  |  | 
CC[C@@H]1CN2CCc3c([nH]c4cccc(OC)c34)[C@@H]2C[C@@H]1/C(=C\OC)C(=O)OC |  |  |  | Active | 4.77 µM | 2.32 µM | Active | Active | 5.48 µM

Source: ChEMBL document CHEMBL4376854, “Investigation of the Adrenergic and Opioid Binding Affinities, Metabolic Stability, Plasma Protein Binding Properties, and Functional Effects of Selected Indole-Based Kratom Alkaloids” (J Med Chem, 2020)
